Reference: patent US20050267073A1, “Triheterocyclic compounds, compositions, and methods for treating cancer or viral diseases” (priority 2004, published 2005)

Key:
[1] = test system: C33A cervical carcinoma cells; assay: cells; format: cell-based; details: Homo sapiens, C-33-A; C33A; cellular ATP levels as described in Example 2; read-out: IC50 (μM) C33A, Effect on Cancer Cells Viability
Description: (§1) […]. […] […]. The total dimethyl sulfoxide on the cells was 1%. […] […].
(§2) As depicted in Table 4, these compounds were efficient in decreasing cellular ATP levels in HI 299 and C33A cancer cell lines. Nevertheless, these compounds are believed to have utility in the in vivo methods of the invention, i.e., treatment and prevention of cancer and viral infections, respectively. It should be noted that, although this cell-based assay is believed to be indicative of anti-oncogenic activity in vivo, it is not the only useful assay for evaluating the anti-oncogenic activity of Triheterocyclic Compounds of the invention. In addition, the anti-viral and other biological activity of compounds of the invention can be determined and evaluated in other assay systems known to the skilled artisan.

[2] = test system: H1299 human non-small cell lung cancer cells; assay: Cell viability by cellular ATP levels (ViaLight), H1299 cells; format: cell-based; details: Homo sapiens, NCI-H1299; H1299; cellular ATP levels as described in Example 2; read-out: IC50 (μM) H1299, Effect on Cancer Cells Viability
Description: as §1, §2

`COC1=CC(c2cc3cc(OC)ccc3n2C(=O)OC(C)(C)C)=N/C1=C\c1[nH]c(C)cc1C` [Compound 30, 2-[5-(3,5-Dimethyl-1H-pyrrol-2-ylmethylene)-4-methoxy-5H-pyrrol-2-yl]-5-methoxy-indole-1-carboxylic acid tert-butyl ester] showed an IC50 [1] of 50 µM and an IC50 [2] of 50 µM.
With `Cc1cc(C)c(/C=C2\N=C(c3cc4c(O)cccc4[nH]3)C=C2OC(C)C)[nH]1` [Compound 57, 2-[5-(3,5-Dimethyl-1H-pyrrol-2-ylmethylene)-4-isopropoxy-5H-pyrrol-2-yl]-1H-indol-4-ol] the IC50 [1] was 3.75 µM and the IC50 [2] was 5.9 µM.
With `COC1=CC(c2[nH]c3ccccc3c2C(=O)c2ccsc2)=N/C1=C\c1[nH]c(C)cc1C` [Compound 12, {2-[5-(3,5-Dimethyl-1H-pyrrol-2-ylmethylene)-4-methoxy-5H-pyrrol-2-yl]-1H-indol-3-yl}-thiophen-3-yl-methanone] the IC50 [1] was 3.6 µM and the IC50 [2] was 2.95 µM.
For `Cc1cc(C)c(/C=C2/N=C(c3cc4cc(F)ccc4[nH]3)C=C2OC(C)C)[nH]1` [Compound 42, 2-[5-(3,5-Dimethyl-1H-pyrrol-2-ylmeythylene)-4-isopropoxy-5H-pyrrol-2-yl]-5-fluoro-1H-indole], the IC50 [1] was 0.358 µM and the IC50 [2] was 0.458 µM.
`COC1=CC(c2[nH]c3ccccc3c2C(=O)NCCCO)=N/C1=C\c1[nH]c(C)cc1C` [Compound 48, 2-[5-(3,5-Dimethyl-1H-pyrrol-2-ylmethylene)-4-methoxy-5H-pyrrol-2-yl]-1H-indole-3-carboxylic acid (3-hydroxy-propyl)-amide] was tested, and the IC50 [1] was 11.1 µM and the IC50 [2] was 50 µM.
Compound `C=CCNCc1c(C2=N/C(=C\c3[nH]c(C)cc3C)C(OC)=C2CO)[nH]c2ccccc12` [Compound 13, [2-(3-Allylaminomethyl-1H-indol-2-yl)-5-(3,5-dimethyl-1H-pyrrol-2-ylmethylene)-4-methoxy-5H-pyrrol-3-yl]-methanol] has an IC50 [1] of 0.44 µM and an IC50 [2] of 0.717 µM.
In the case of `CCOC(=O)C(=O)c1c(C)[nH]c(/C=C2\N=C(c3[nH]c4ccccc4c3C(=O)C(=O)OCC)C=C2OC)c1C` [Compound 20, {2-[5-(4-Ethoxyoxalyl-3,5-dimethyl-1H-pyrrol-2-ylmethylene)-4-methoxy-5H-pyrrol-2-yl]-1H-indol-3-yl}-oxo-acetic acid ethyl ester], the IC50 [1] is reported as 7.23 µM and the IC50 [2] is reported as 7.98 µM.
`COC1=CC(c2cc3c(O)cccc3[nH]2)=N/C1=C\c1[nH]c(C)cc1C` [Compound 59, 2-[5-(3,5-Dimethyl-1H-pyrrol-2-ylmethylene)-4-methoxy-5H-pyrrol-2-yl]-1H-indol-4-ol] gave an IC50 [1] of 5.6 µM and an IC50 [2] of 5.84 µM.
For `Cc1cc(C)c(/C=C2\N=C(c3cc4ccc(F)cc4[nH]3)C=C2OC(C)C)[nH]1` [Compound 45, 2-[5-(3,5-Dimethyl-1H-pyrrol-2-ylmethylene)-4-isopropoxy-5H-pyrrol-2-yl]-6-fluoro-1H-indole], the IC50 [1] was 0.716 µM and the IC50 [2] was 0.887 µM.
`COC1=CC(c2[nH]c3ccccc3c2CN2CCOCC2)=N/C1=C\c1[nH]c(C)cc1C` [Compound 6, 2-[5-(3,5-Dimethyl-1H-pyrrol-2-ylmethylene)-4-methoxy-5H-pyrrol-2-yl]-3-morpholin-4-ylmethyl-1H-indole] was tested, and the IC50 [1] was 0.19 µM and the IC50 [2] was 0.267 µM.
In the case of `COC1=CC(c2cc3ccccc3n2Cc2ccc(O)cc2)=N/C1=C\c1[nH]c(C)cc1C` [Compound 58, 4-{2-(5-(3,5-Dimethyl-1H-pyrrol-2-ylmethylene)-4-methoxy-5H-pyrrol-2-yl]-indol-1-ylmethyl}-phenol], the IC50 [1] is reported as 1.32 µM and the IC50 [2] is reported as 1.97 µM.
With `COC1=CC(c2cc3cc(OC)c(OC)cc3[nH]2)=N/C1=C\c1[nH]c(C)cc1C` [Compound 4, 2-[5-(3,5-Dimethyl-1H-pyrrol-2-ylmethylene)-4-methoxy-5H-pyrrol-2-yl]-5,6-dimethoxy-1H-indole] the IC50 [1] was 0.25 µM and the IC50 [2] was 0.215 µM.
For `COC1=CC(c2cc3ccccc3n2C(=O)OCC(O)CO)=N/C1=C\c1[nH]c(C)cc1C` (centres unmarked) [Compound 44, 2-[5-(3,5-Dimethyl-1H-pyrrol-2-ylmethylene)-4-methoxy-5H-pyrrol-2-yl]-indole-1-carboxylic acid 2,3-dihydroxy-propyl ester], the IC50 [1] was 1.26 µM and the IC50 [2] was 1.28 µM.
